Measurements from patent publication US9645154B2, “Method for detecting cancer cell” (ARKRAY, Inc., priority 2010, dated 2017).

Tested on: Mixture of blood cells and PC3 cells
Test: Aminolevulinic acid labeling combined with anti-CD45/anti-CD34 and anti-EpCAM antibodies
Format: cell-based, human
Conditions: ALA: 0.3 mM, FeC12: 0.3 mM, Ascorbic acid: 0.3 mM, 37° C., 60 min, threshold value 216
From the text: Blood was collected from a human subject using a vacuum blood collection tube (with EDTA•2K). Blood cells were separated using HetaSep (STEMCELL Technologies) in accordance with the manufacturer's instructions.
In accordance with the conventional method, cultured human prostate cancer cell line (PC3, DS Pharma Biomedical Co., Ltd.) was harvested with trypsin (Invitrogen). The cell suspension of the harvested cancer cells was centrifuged, and the supernatant was removed. The cells were resuspended with Dulbecco's PBS (+) (Nissui Pharmaceutical Co., Ltd.) and centrifuged, and the supernatant was removed again.
The number of the cells in the suspension of the isolated blood cells was counted using a hemacytometer in accordance with the conventional method. Further, the number of the cells was also counted for the human prostate cancer cell line (PC3) in a similar manner, and the cells were added to the blood cell suspension to give a cell number of 1% of that of the blood cells. […]
The number of the cells was counted using a hemacytometer in accordance with the conventional method, and then 10^5 to 10^6 cells per sample (cell suspension) was aliquoted. […] The image was captured with a fluorescence microscope (Nikon Corp.). Protoporphyrin IX was detected with the fluorescence filter set 1, the PE-labeled anti-EpCAM antibody was detected with the fluorescence filter set 2, and the FITC-labeled anti-CD45 antibody and the FITC-labeled anti-CD34 antibody were detected with the fluorescence filter set 3.
Wavelengths for the fluorescence filter set 1: EX (excitation wavelength) 402±7.5 nm, DM 430 nm or longer, BA (fluorescence wavelength) 625±15 nm.
Wavelengths for the fluorescence filter set 2: EX (excitation wavelength) 535±25 nm, DM 575 nm or longer, BA (fluorescence wavelength) 590 nm or longer.
Wavelengths for the fluorescence filter set 3: EX (excitation wavelength) 475±15 nm, DM 505 nm or longer, BA (fluorescence wavelength) 525±10 nm. […]

With `NCC(=O)CCC(=O)O` [aminolevulinic acid, 5-amino-4-oxopentanoic acid] as the compound, how does the “False-positive rate (using α-CD45/34)” value (FITC-α-CD45/CD34 antibody) read?
Its value is 0.0%.

What about the Positive rate (PC3 at 1% of blood cells, hemolyzed) of the same compound?
Its Positive rate is 85%.

What about the “False-positive rate (without using α-CD45/34)” value of the same compound?
The value was 1.1%.
